The text below walks through data of patent US10253002B2, “Compounds and methods of treating infections” (Neoculi Pty Ltd., priority 2013, dated 2019).

Molecules are shown by their SMILES. “And” between values parts separate entries of the source, which are not always exact repeats. Identical values can stand only once. Bounds are passed on as bounds.

Holding throughout (assay): Broth microdilution MIC, Example 7 (NCL812 and analogues)
One assay has as its system MRSA. Type of assay: cell-based, Staphylococcus aureus. To be noted: for MIC (μg/ml) at 24 hours, MRSA 1: isolate MRSA 1; for MIC (μg/ml) at 24 hours, MRSA 1 / MIC (μg/ml) at 24 hours, MRSA 2: 1st and 2nd replicate rows; for MIC (μg/ml) at 24 hours, MRSA 2: isolate MRSA 2; for activity against MRSA among analogues: MIC testing, two MRSA strains. Here is the method: (§1) Minimum inhibitory concentrations (μg/ml) were determined using the broth microdilution method recommended by the Clinical and Laboratory Standards Institute (CLSI). MIC breakpoints were determined by visual assessment and then confirmed using an ELISA plate reader, measuring absorbance levels at 600 nm. Bacterial growth (turbidity) in the wells with antimicrobial was compared with the amount of growth (turbidity) in the growth-control well (containing no antimicrobial). All isolates were tested in duplicate, if there was a difference of greater than one two-fold dilution in the results, the test was repeated a third time. The purity of the isolates was closely monitored during testing by subculturing the prepared bacterial inoculum onto SBA (sheep blood agar). […] The MIC50, MIC20 and MIC range (minimum and maximum) were calculated for each of the bacterial groups.
(§2) MICs were determined against two MRSA strains, two VRE strains and one strain each of E. coli and Pseudomonas aeruginosa.

Another assay concerns Pseudomonas aeruginosa. The assay is classed as cell-based. The note with it: 24 hours; 1st and 2nd replicate rows.
The test system of the next assay is Escherichia coli. Type of assay: cell-based. To be noted: 24 hours; 1st and 2nd replicate rows.
The subject of another assay is VRE. Type of assay: cell-based, Enterococcus spp. The note with it: for MIC (μg/ml) at 24 hours, VRE 1: isolate VRE 1; for MIC (μg/ml) at 24 hours, VRE 1 / MIC (μg/ml) at 24 hours, VRE 2: 1st and 2nd replicate rows; for MIC (μg/ml) at 24 hours, VRE 2: isolate VRE 2; for activity against VRE among analogues: MIC testing, two VRE strains. The procedure:
as §1, §2

Consider `O=C(N/N=C/c1ccc(Cl)cc1)N/N=C/c1ccc(Cl)cc1` [NCL001], for which, in the assay on MRSA, the “MIC (μg/ml) at 24 hours, MRSA 1” value is more than 128 µg/mL and the “MIC (μg/ml) at 24 hours, MRSA 2” value is more than 128 µg/mL. In the assay on Pseudomonas aeruginosa, the “MIC (μg/ml) at 24 hours, P. aeruginosa” value was more than 128 µg/mL. In addition, in the assay with Escherichia coli, the “MIC (μg/ml) at 24 hours, E. coli” value is >128 µg/mL and >126 µg/mL. In the assay with VRE, the “MIC (μg/ml) at 24 hours, VRE 1” value is more than 128 µg/mL and the “MIC (μg/ml) at 24 hours, VRE 2” value is more than 128 µg/mL.
Turning to `O=C(N/N=C/c1ccccc1Cl)N/N=C/c1ccccc1Cl` [NCL002], in the assay on MRSA, the “MIC (μg/ml) at 24 hours, MRSA 1” value was more than 128 µg/mL and the “MIC (μg/ml) at 24 hours, MRSA 2” value was more than 128 µg/mL. The “MIC (μg/ml) at 24 hours, P. aeruginosa” value against Pseudomonas aeruginosa is more than 128 µg/mL. Besides, in the assay with Escherichia coli, the “MIC (μg/ml) at 24 hours, E. coli” value was more than 128 µg/mL. In the assay on VRE, the “MIC (μg/ml) at 24 hours, VRE 1” value was more than 128 µg/mL and the “MIC (μg/ml) at 24 hours, VRE 2” value was more than 128 µg/mL.
Turning to `O=C(N/N=C/c1ccc(F)cc1)N/N=C/c1ccc(F)cc1` [NCL003], in the assay on MRSA, the “MIC (μg/ml) at 24 hours, MRSA 1” value is more than 128 µg/mL and the “MIC (μg/ml) at 24 hours, MRSA 2” value was more than 128 µg/mL. In addition, the “MIC (μg/ml) at 24 hours, P. aeruginosa” value against Pseudomonas aeruginosa is more than 128 µg/mL. In addition, the “MIC (μg/ml) at 24 hours, E. coli” value against Escherichia coli is more than 128 µg/mL. Also, in the assay on VRE, the “MIC (μg/ml) at 24 hours, VRE 1” value is more than 128 µg/mL and the “MIC (μg/ml) at 24 hours, VRE 2” value is more than 128 µg/mL.
On to `O=C(N/N=C/c1cccc(F)c1)N/N=C/c1cccc(F)c1` [NCL004], for which, in the assay with MRSA, the “MIC (μg/ml) at 24 hours, MRSA 1” value was more than 128 µg/mL and the “MIC (μg/ml) at 24 hours, MRSA 2” value is more than 128 µg/mL. Also, the “MIC (μg/ml) at 24 hours, P. aeruginosa” value in the assay on Pseudomonas aeruginosa is more than 128 µg/mL. For the same molecule, the “MIC (μg/ml) at 24 hours, E. coli” value with Escherichia coli is more than 128 µg/mL. In addition, in the assay with VRE, the “MIC (μg/ml) at 24 hours, VRE 1” value was more than 128 µg/mL and the “MIC (μg/ml) at 24 hours, VRE 2” value was more than 128 µg/mL.
On to `O=C(N/N=C/c1ccccc1F)N/N=C/c1ccccc1F` [NCL005], for which, in the assay on MRSA, the “MIC (μg/ml) at 24 hours, MRSA 1” value is more than 128 µg/mL and the “MIC (μg/ml) at 24 hours, MRSA 2” value was more than 128 µg/mL. Further, the “MIC (μg/ml) at 24 hours, P. aeruginosa” value in the assay on Pseudomonas aeruginosa was more than 128 µg/mL. Also, in the assay with Escherichia coli, the “MIC (μg/ml) at 24 hours, E. coli” value was more than 128 µg/mL. Also, in the assay on VRE, the “MIC (μg/ml) at 24 hours, VRE 1” value is more than 128 µg/mL and the “MIC (μg/ml) at 24 hours, VRE 2” value was more than 128 µg/mL.
As to `COc1ccc(/C=N/NC(=O)N/N=C/c2ccc(OC)cc2)cc1` [NCL006], in the assay on MRSA, the “MIC (μg/ml) at 24 hours, MRSA 1” value was more than 128 µg/mL and the “MIC (μg/ml) at 24 hours, MRSA 2” value is more than 128 µg/mL. The “MIC (μg/ml) at 24 hours, P. aeruginosa” value against Pseudomonas aeruginosa was more than 128 µg/mL. For the same molecule, the “MIC (μg/ml) at 24 hours, E. coli” value against Escherichia coli was more than 128 µg/mL. In addition, in the assay with VRE, the “MIC (μg/ml) at 24 hours, VRE 1” value is more than 128 µg/mL and the “MIC (μg/ml) at 24 hours, VRE 2” value is more than 128 µg/mL.
In the case of `N#Cc1ccc(/C=N/NC(=O)N/N=C/c2ccc(C#N)cc2)cc1` [NCL007], in the assay with MRSA, the “MIC (μg/ml) at 24 hours, MRSA 1” value was more than 128 µg/mL and the “MIC (μg/ml) at 24 hours, MRSA 2” value was more than 128 µg/mL. Besides, the “MIC (μg/ml) at 24 hours, P. aeruginosa” value in the assay with Pseudomonas aeruginosa was more than 128 µg/mL. Besides, in the assay with Escherichia coli, the “MIC (μg/ml) at 24 hours, E. coli” value was more than 128 µg/mL. In the assay with VRE, the “MIC (μg/ml) at 24 hours, VRE 1” value was more than 128 µg/mL and the “MIC (μg/ml) at 24 hours, VRE 2” value was more than 128 µg/mL.
For `N#Cc1ccccc1/C=N/NC(=O)N/N=C/c1ccccc1C#N` [NCL008], in the assay on MRSA, the “MIC (μg/ml) at 24 hours, MRSA 1” value was more than 128 µg/mL and the “MIC (μg/ml) at 24 hours, MRSA 2” value was more than 128 µg/mL. Further, the “MIC (μg/ml) at 24 hours, P. aeruginosa” value in the assay with Pseudomonas aeruginosa is more than 128 µg/mL. Besides, in the assay on Escherichia coli, the “MIC (μg/ml) at 24 hours, E. coli” value was more than 128 µg/mL. Further, in the assay on VRE, the “MIC (μg/ml) at 24 hours, VRE 1” value was more than 128 µg/mL and the “MIC (μg/ml) at 24 hours, VRE 2” value is more than 128 µg/mL.
For the molecule `N#Cc1cccc(/C=N/NC(=O)N/N=C/c2cccc(C#N)c2)c1` [NCL009], in the assay on MRSA, the “MIC (μg/ml) at 24 hours, MRSA 1” value was more than 128 µg/mL and the “MIC (μg/ml) at 24 hours, MRSA 2” value was more than 128 µg/mL. Moreover, the “MIC (μg/ml) at 24 hours, P. aeruginosa” value with Pseudomonas aeruginosa was more than 128 µg/mL. Also, in the assay with Escherichia coli, the “MIC (μg/ml) at 24 hours, E. coli” value is more than 128 µg/mL. In the assay with VRE, the “MIC (μg/ml) at 24 hours, VRE 1” value was more than 128 µg/mL and the “MIC (μg/ml) at 24 hours, VRE 2” value was more than 128 µg/mL.
On to `COc1cc(/C=N/NC(=N)N/N=C/c2ccc(O)c(OC)c2)ccc1O.Cl` [NCL117], for which, in the assay on MRSA, the “activity against MRSA among analogues” value is “greatest activity”. The “activity against VRE among analogues” value in the assay on VRE is “greatest activity”.
Regarding `C#Cc1cccc(C=NNC(=N)NN=Cc2cccc(C#C)c2)c1.Cl` [NCL126], the “activity against VRE among analogues” value with VRE is “greatest activity”.
The same measure, in the same setting: the result for `Cl.N=C(NN=Cc1cccc(Br)c1)NN=Cc1cccc(Br)c1` [NCL131] reads “greatest activity”.
As to `CCCCc1ccc(C=NNC(=N)NN=Cc2ccc(CCCC)cc2)cc1.Cl` [NCL136], the “activity against MRSA among analogues” value in the assay on MRSA is reported as “greatest activity”. Besides, the “activity against VRE among analogues” value in the assay with VRE is “greatest activity”.
Turning to `Cl.N=C(NN=CC(=Cc1ccccc1)c1ccccc1)NN=CC(=Cc1ccccc1)c1ccccc1` [NCL138], the “activity against MRSA among analogues” value with MRSA is on record as “greatest activity”.
Regarding `CSc1ccc(C=NNC(=N)NN=Cc2ccc(SC)cc2)cc1.Cl` [NCL140], in the assay with MRSA, the “activity against MRSA among analogues” value is reported as “greatest activity”. Further, the “activity against VRE among analogues” value in the assay with VRE is “greatest activity”. Also, the VRE with VRE (bioassay ranking, VRE) was found to be 5 µg/mL.
Consider `Cl.N=C(NN=Cc1csc2ccc(Cl)cc12)NN=Cc1csc2ccc(Cl)cc12` [NCL141], for which the “activity against VRE among analogues” value in the assay on VRE is recorded as “greatest activity”.
As for `COc1ccc(C=CC=NNC(=N)NN=CC=Cc2ccc(OC)cc2)cc1.Cl` [NCL150], the “activity against MRSA among analogues” value in the assay with MRSA is “greatest activity”.
Turning to `Cl.N=C(NN=Cc1ccc(O)cc1)NN=Cc1ccc(O)cc1` [NCL151], the “activity against MRSA among analogues” value with MRSA is reported as “greatest activity”. Also, in the assay with VRE, the “activity against VRE among analogues” value is “greatest activity”.
